Structures can show the parent of a compound that is named as a salt. Where two headings read alike, the source gives them in different places.
What was measured:
[1] = background statement; cited from earlier work
[2] = background statement; cited from earlier work; remark: listed apart in the source
[3] = target: T1, human carbonic anhydrase II (Homo sapiens, UniProt P00918); assay: Carbonic Anhydrase Binding Assay
[4] = target: T1, human carbonic anhydrase II; assay: Carbonic Anhydrase Inhibition Assay; assay type: biochemical
[5] = in vitro binding for human carbonic anhydrase II, read-out: Ki
[6] = in vitro inhibition of human carbonic anhydrase II, read-out: IC50

Row | Structure (SMILES) | Ki [3, 5] [µM] | IC50 [4, 6] [µM] | also measured
1 | CC(C)(C)NC[C@H](O)COc1nsnc1N1CCOCC1 [(S)-1-tert-Butylamino-3-[(4-morpholino-1,2-5-thiadiazol-3-yl)ox-yl]-2-propanol] |  |  | reduce intraocular pressure [1]: found to reduce intraocular pressure; duration of activity [2]: long duration of activity; local anesthetic properties [2]: devoid of local anesthetic properties; tolerance [2]: minimal tolerance
2 | NS(=O)(=O)c1cc2c(s1)SCC(=O)N2 [Example 1, 2,3-Dihydro-2-oxo-6-sulfamoyl-1H-thieno[2,3-b][1,4]thiazine] | < 10 | < 10 | 
3 | NS(=O)(=O)c1cc2c(s1)SC(CC(=O)O)C(=O)N2 (centres unmarked) [Example 2, (2,3-Dihydro-2-oxo-6-sulfamoyl-1H-thieno[2,3-b][1,4]thiazin-3-yl)acetic Acid] | < 10 | < 10 | 
4 | NS(=O)(=O)c1cc2c(s1)S(=O)(=O)CC(=O)N2 [Example 4, 2,3-Dihydro-6-sulfamoyl-2,4,4-trioxo-1H-thieno[2,3-b][1,4]thiazine] |  |  | Ki [3]: < 10 µM; IC50 [4]: < 10 µM
5 | NS(=O)(=O)c1cc2c(s1)S(=O)(=O)CCN2 [Example 6, 2,3-Dihydro-4,4-dioxo-6-sulfamoyl-1H-thieno[2,3-b][1,4]thiazine] | < 10 | < 10 | 
6 | NS(=O)(=O)c1cc2c(s1)S(=O)(=O)CC(=S)N2 [Example 8, 2,3-Dihydro-4,4-dioxo-6-sulfamoyl-2-thiono-1H-thieno[2,3-b][1,4]thiazine] | < 10 | < 10 | 
7 | CC(C)CNCCC1CNc2cc(S(N)(=O)=O)sc2S1(=O)=O (centres unmarked) [Example 18, 3-(2-Isobutylaminoethyl)-2,3-dihydro-4,4-dioxo-6-sulfamoyl-1H-thieno[2,3-b][1,4]thiazine Hydrochloride] | < 10 | < 10 | 
8 | COCCN(CCOC)CCC1CNc2cc(S(N)(=O)=O)sc2S1(=O)=O (centres unmarked) [Example 19, 3-[2-Bis-(2-methoxyethyl)aminoethyl]-2,3-dihydro-4,4-dioxo-6-sulfamoyl-1H-thieno[2,3-b][1,4]thiazine Hydrochloride] |  |  | Ki [3]: < 10 µM; IC50 [4]: < 10 µM
9 | COCCOCCN(CCOC)CCC1CNc2cc(S(N)(=O)=O)sc2S1(=O)=O (centres unmarked) [Example 20, 3-[2-(N-Methoxyethoxyethyl-N-methoxyethylamino)ethyl]-2,3-dihydro-4,4-dioxo-6-sulfamoyl-1H-thieno[2,3-b][1,4]thiazine Hydrochloride] | < 10 | < 10 | 
10 | CNC(=O)Oc1ccc2c(c1)[C@]1(C)CCN(C)[C@@H]1N2C [physostigmine] |  |  | reduce intraocular pressure [1]: reduce intraocular pressure
11 | CC[C@@H]1C(=O)OC[C@@H]1Cc1cncn1C [pilocarpine] |  |  | reduce intraocular pressure [1]: reduce intraocular pressure

Now from value to molecule, other results behind:

Row | Ki [3, 5] [µM] | IC50 [4, 6] [µM] | Structure (SMILES) | also measured
12 | < 10 | < 10 | NS(=O)(=O)c1cc2c(s1)S(=O)(=O)C(CC(=O)O)C(=O)N2 (centres unmarked) [Example 5, (2,3-Dihydro-2,4,4-trioxo-6-sulfamoyl-1H-thieno[2,3-b][1,4]thiazin-3-yl)acetic acid] | 
13 | < 10 | < 10 | NS(=O)(=O)c1cc2c(s1)S(=O)(=O)C(CCO)CN2 (centres unmarked) [Example 10, 3-(2-Hydroxyethyl)-2,3-dihydro-4,4-dioxo-6-sulfamoyl-1H-thieno[2,3-b][1,4]thiazine] | 
14 | < 10 | < 10 | COC(=O)CC1C(=O)Nc2cc(S(N)(=O)=O)sc2S1(=O)=O (centres unmarked) [Example 11, Methyl (2,3-Dihydro-2,4,4-trioxo-6-sulfamoyl-1H-thieno[2,3-b][1,4]thiazin-3-yl)acetate] | 
15 | < 10 | < 10 | COC(=O)CC1Sc2sc(S(N)(=O)=O)cc2NC1=O (centres unmarked) [Example 12, Methyl (2,3-Dihydro-2-oxo-6-sulfamoyl-1H-thieno[2,3-b][1,4]thiazin-3-yl)acetate] | 
16 | < 10 | < 10 | NNC(=O)CC1C(=O)Nc2cc(S(N)(=O)=O)sc2S1(=O)=O (centres unmarked) [Example 13, (2,3-Dihydro-6-sulfamoyl-2,4,4-trioxo-1H-thieno[2,3-b][1,4]thiazin-3-yl)acetic Acid Hydrazide] | 
17 | < 10 | < 10 | CCOC(=O)NCC1C(=O)Nc2cc(S(N)(=O)=O)sc2S1(=O)=O (centres unmarked) [Example 14, 2,3-Dihydro-3-ethoxycarbonylaminomethyl-2,4,4-trioxo-6-sulfamoyl-1H-thieno[2,3-b][1,4]thiazine] | 
18 | < 10 | < 10 | COCCOCCN(CCOC)C(=O)CC1C(=O)Nc2cc(S(N)(=O)=O)sc2S1(=O)=O (centres unmarked) [Example 16, N-Methoxyethoxyethyl-N-methoxyethyl(2,3-dihydro-2,4,4-trioxo-6-sulfamoyl-1H-thieno[2,3-b][1,4]thiazin-3-yl)acetamide] | 
19 | < 10 | < 10 | COCCOCCN(CCOC)CCC1C(=O)Nc2cc(S(N)(=O)=O)sc2S1(=O)=O (centres unmarked) [Example 17, 3-[2-(N-Methoxyethoxyethyl-N-methoxyethylamino)ethyl]-2,3-dihydro-2,4,4-trioxo-6-sulfamoyl-1H-thieno[2,3-b][1,4]thiazine] | 

— patent US5093332A, “Substituted thieno(2,3-B)(1,4)thiazine-6-sulfonamides as antiglaucoma agents” (priority 1990, dated 1992)
